From US10258598B2, “Compounds for use in the prevention or treatment of cancer” ([…], priority 2014, dated 2019)

Key:
MAO-A = target: T1, MAO-A (Rattus norvegicus, UniProt P21396); settings: Knoll et al., 1999; cited from earlier work
T1 construct: host or cells: animal dosed in mg/kg (in vivo)
T1 sequence (P21396 1-526): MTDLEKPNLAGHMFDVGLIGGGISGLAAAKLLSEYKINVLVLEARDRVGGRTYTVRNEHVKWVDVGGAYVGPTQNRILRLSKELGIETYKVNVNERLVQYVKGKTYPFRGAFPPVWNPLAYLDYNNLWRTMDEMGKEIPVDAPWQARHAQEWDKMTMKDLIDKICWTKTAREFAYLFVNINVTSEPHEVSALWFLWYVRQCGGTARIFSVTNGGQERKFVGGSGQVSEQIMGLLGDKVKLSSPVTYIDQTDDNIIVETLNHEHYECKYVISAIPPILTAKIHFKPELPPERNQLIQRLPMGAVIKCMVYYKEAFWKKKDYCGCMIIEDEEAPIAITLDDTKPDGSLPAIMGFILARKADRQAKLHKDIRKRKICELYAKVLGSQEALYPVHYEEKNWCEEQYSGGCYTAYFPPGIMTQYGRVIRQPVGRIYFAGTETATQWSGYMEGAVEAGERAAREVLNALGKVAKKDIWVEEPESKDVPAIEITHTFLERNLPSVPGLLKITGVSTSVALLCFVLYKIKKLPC

lung carcinoma = assay: Longevity study on FVB/N mice: spontaneous lung carcinoma at autopsy; format: in vivo; settings: for Number of detected lung carcinoma: 18 months, saline 3 of 4
Experimental: Five groups of mice are treated daily from sexual maturity with two different doses of
(−)-deprenyl and (−)-BPAP, respectively.
Group 2: BPAP low dose: 0.0001 mg/kg (−)-BPAP
Group 3: BPAP high dose: 0.05 mg/kg (−)-BPAP
A total of 172 mice entered the experiments. Body weight is measured bimonthly.
For monitoring, we planned to sacrifice mice from each group at 6-month, 1-year, 1.5-year and 2-year time-points; the rest of the animals are kept until spontaneous death.
The results are shown in Table 4 and on FIGS. 19 and 20. Significance levels were calculated with two-sided Chi-square test.

noradrenergic neurons = settings: Knoll et al., 1999, cited from earlier work
[1] = system: male Wistar rats (Charles River); assay: Longevity study: survival of rats under lifelong treatment; format: in vivo, rat; settings: for month of age in which the first animal died: saline: 9th month; for lifespan versus saline-treated peers: both doses of each substance (FIGS. 5-8), Kaplan-Meier
Experimental: Experiments were carried out on male Wistar rats (Charles River) weighing 250-350 g received from the breeding colony of Semmelweis University. The animals were kept in a 12-hour light-dark cycle and under condition of controlled temperature (22±2° C.) and relative humidity (55±5%). Room temperature and relative humidity was checked daily. The rats were maintained on standard laboratory chow and tap water ad libitum. All procedures conformed to the European Convention for the protection of vertebrate animals used for experimental and other scientific purposes. The study was approved by the Animal Ethics Committee of Semmelweis University, Budapest (permission number: 1810/003/2004)
The longevity study was performed on 200 male rats received from the breeding colony of the Semmelweis University. The rats were born at the end of February of 2010. After 2-month acclimation period the rats were divided randomly into 5 even groups. The longevity study started at the beginning of May 2010. Animals were observed until their natural deaths. The data in this study represent the changes observed until Oct. 31, 2012, since in the saline-treated group the last animal died on Oct. 31, 2012. As will be shown later a few rats in the enhancer-treated groups were still alive on Nov. 1, 2012.
During the longevity study 5 rats were housed together in polycarbonate cages (height: 18 cm; wide: 42 cm; length: 44 cm) with a stainless steel on the top. Cage bedding was renewed 3 times a week (Monday, Wednesday and Friday). Bodyweight was measured once every month. The treatment started at the end of the second month of their age. […] To avoid the mixing of the groups and individuals, saline-treated rats were signed blue from 1 to 40; D-treated rats were signed green from 1 to 80 (1-40: rats treated with 0.1 mg/kg and 41-80: rats treated with 0.001 mg/kg); B-treated rats were signed black from 1 to 80 (1-40: rats treated with 0.05 mg/kg and 41-80: rats treated with 0.0001 mg/kg).
Significance in the performance between the groups in the shuttle box was evaluated by multi-factor analysis of variance (ANOVA). Significance regarding the span of time from tumor manifestation until death in rats and regarding aging related changes in bodyweight treated chronically with the enhancer substances was analyzed by One-way ANOVA. Statistical analysis of survival rate and tumor manifestation was performed by the Kaplan-Meier method.

mammary tumors = settings: ThyagaRajan et al. 1998; cited from earlier work
[2] = system: Wistar-Logan strain of rats; settings: cited from earlier work

| Structure (SMILES) | dose that blocks the activity of MAO-A (MAO-A) | Number of detected lung carcinoma (lung carcinoma; 0.0001 mg/kg daily, 4 dissected mice) | Number of detected lung carcinoma (lung carcinoma; 0.05 mg/kg daily, 4 dissected mice) | manifestation of lung carcinoma (lung carcinoma; specific enhancer (extremely low) dose, 18 months daily treatment) | concentration range of the non-specific enhancer effect relative to the specific one (noradrenergic neurons; Knoll, Miklya, Knoll B, 2002) | concentration range of the specific enhancer effect (noradrenergic neurons) | month of age in which the first animal died ([1]; 0.0001 mg/kg s.c. 3 times a week, N=40) | rats remaining alive to the end of the 32nd month of age ([1]; 0.0001 mg/kg, N=40, P<0.05 vs saline) | month of age in which the first animal died ([1]; 0.05 mg/kg s.c. 3 times a week, N=40) | lifespan versus saline-treated peers [1] | dose inhibiting the development of mammary tumors (mammary tumors) | rats that lived longer than the maximum lifespan ever observed in the strain ([2]; out of the 50 treated HP rats) | lifespan ([2]; sexually high performing (HP) rats treated for life, n=50, saline HP 151.24±1.36) | lifespan versus saline-treated peers ([2]; sexually low performing (LP) rats treated for life, n=49, saline LP 134.58±2.29 weeks) | Number of detected lung carcinoma (lung carcinoma; 0.001 mg/kg daily, 2 dissected mice) | Number of detected lung carcinoma (lung carcinoma; 0.1 mg/kg daily, 4 dissected mice) | month of age in which the first animal died ([1]; 0.001 mg/kg s.c. 3 times a week, N=40) | month of age in which the last animal died ([1]; 0.001 mg/kg, N=40) | rats remaining alive to the end of the 32nd month of age ([1]; 0.001 mg/kg, N=40, P>0.05 vs saline) | month of age in which the first animal died ([1]; 0.1 mg/kg s.c. 3 times a week from 2 months of age, N=40) |
| --- | --- | --- | --- | --- | --- | --- | --- | --- | --- | --- | --- | --- | --- | --- | --- | --- | --- | --- | --- | --- |
| CCCN[C@H](CCC)Cc1cc2ccccc2o1 [(−)-BPAP, (R)-1-(benzofuran-2-yl)-2-propylamino pentane] | higher than 2 mg/kg | 0 | 1 | completely prevented | 10 million times higher concentration range | femto/picomolar concentration range | 16 month | one and One | 14 month | significantly longer | – | – | – | – | – | – | – | – | – | – |
| C#CCN(C)[C@H](C)Cc1ccccc1 [(−)-Deprenyl, (R)—N-methyl-N-(1-phenylpropan-2-yl)prop-2-yn-1-amine] | – | – | – | – | – | – | – | – | – | did not prolong the lifespan of rats significantly | ≥ 0.25 mg/kg body weight | 17 rats | 185.30±1.96 weeks | lived significantly longer than their saline treated peers | 0 | 1 | 13 month | 32 month | none | 11 month |
